Series [1] deals with human cervix cancer cells Hela. Put plainly: Plk Cell Proliferation Inhibition Assay (CCK8, 72 hours). It is filed as cell-based. Conditions: Hela cells highly expressing Plk. An excerpt: The following in vitro assay is to determine the activity of the compounds of the present invention for inhibiting the proliferation of human cervix cancer cells Hela, which has high expression of Plk.
The in vitro cellular assay described here is to determine the activity of the tested compounds for inhibiting the proliferation of cancer cells, which has high expression of Plk. The activity is represented by the […]. The general procedures for the assay are given as follows: The Hela cells highly expressing Plk (Institute of biochemistry and cell biology) were seeded to 96-well cell culture plate at a suitable concentration (exp 3000 cells/ml medium). The cells then were cultured in carbon dioxide (CO2) incubator and grew overnight. Then, the cell culture medium was replaced by fresh one with tested compounds added in it at serial concentrations (general 7 to 9 concentrations). Then the cells were put back to the incubator and cultured for continuous 72 hours. 72 hours later, the activity of the tested compounds for inhibiting the cell proliferation was determined by using CCK8 (cell counting kit-8, Dojindo, NO:CK04) method. IC50 value on tested cells were calculated by the data of inhibition rates of serial concentrations of the tested compounds.

For series [2], the system named is xenografts of HT-116 human colon cancer. Put plainly: Therapeutic effects against xenografts of HT-116 human colon cancer in nude mice. The class given is in vivo. Conditions: nude mice bearing HT-116 xenografts. The protocol:
The therapeutic effect of Example 1 against xenografts of HT-116 human colon cancer in nude mice was estimated.
Preparation method: the compound of Example 1 was prepared to corresponding concentration by using normal saline.
BALB/cA-nude mice, 6 to 7 weeks old, ♀, purchased from Slaccas Experimental Animal LTD., CO.
Nude mice were hypodermic inoculated HT-116 human colon cancer cell. After tumors grew to 60-150 mm^3, mice were randomly divided into teams (d0).
The volume of tumors and the weigh of the mice were measured and recorded for 2-3 times per week.
The calculation formula of the volume of tumor (V) is: V=½×a×b^2, a: length of tumor, b: width of tumor.
On the technique in general: In xenograft studies the graft and the host belong to different species.

Series [3] is described as follows: Pharmacokinetics assay in rats (plasma concentration by LC/MS/MS). The class given is in vivo. Conditions: SD rats, 25 mg/kg; for AUC: read-out: Area Under Curve AUC; for half-life: read-out: Half-Life t½ (converted); for MRT: read-out: Mean Residence Time MRT. The protocol:
The compound 37 of the present invention was administrated intravenous injection or intragastrically to rats to determine the drug concentration in plasma at different time points by LC/MS/MS method. The pharmacokinetic behavior of the compounds of the present invention was studied and evaluated in rats.
The right amount of tested compound was dissolved in 0.5 mL of DMSO, added with 1.5 mL of 0.1 M HCl, then diluted with normal saline to 2.5 mg/mL of suspension before use.
8 Healthy adult adult SD rats, male and female in half, were divided into 2 groups. After an overnight fast, the rats were administered intragastrically or administered via tail intravenous injection at a dose of 25.0 mg/kg.
25 μL of rat plasmas taken at various time points after administration were mixed with 20 μL of internal standard solution and 150 μL methanol for 3 minutes by using a vortexer and the mixture was centrifuged for 10 minutes at 13,500 rpm. 5 μL of the supernatant was analyzed by LC-MS/MS.
Plasma concentration was used as the abscissa, the ratio of chromatographic peak area between the sample and internal standard was used as the ordinate, the linear regression was carried out by the weighted least square method (w=1/x^2). The main pharmacokinetic parameters were calculated by DAS 2.0 software.

Setting [4] is: both sexes, rat, plasma, po, intragastric administration.
Where [5] appears, read: both sexes, rat, plasma, intravenous injection.

Where two headings read alike, the source gives them in different places.

The term IC50 denotes the point on the concentration scale where inhibition reaches its midpoint. Read a low IC50 as greater potency. As usually defined, the bioavailability is dose-corrected exposure relative to a reference, in per cent. A word on the AUC: it is the area under the concentration-time curve, a measure of exposure. A word on the half-life: it is the time in which the quantity being followed falls by half. What is called MRT is a mean duration of stay, worked out from the concentration-time curve. One may read the Cmax as the maximum level reached in the sampled fluid or tissue.

Compound `CC[C@@H]1C(=O)N(C)c2cnc(Nc3ccc(C(=O)NC4CCN(C)CC4)c4c3OCC4)nc2N1C1CCCC1` [Example 1, 7-[[(7R)-8-Cyclopentyl-7-ethyl-5-methyl-6-oxo-7H-pteridin-2-yl]amino]-N-(1-methyl-piperidyl)-2,3-dihydrobenzofuran-4-carboxamide] returned an IC50 in series [1] of 0.9 nM. In series [2], the “toxicity (in words)” value was “less toxity”.
Regarding `CC[C@@H]1C(=O)N(C)c2cnc(Nc3ccc(C(=O)N[C@H]4CC[C@H](N5CCN(CC6CC6)CC5)CC4)c4c3OCC4)nc2N1C(C)C` [Example 37, N-[(trans)-4-[4-(Cyclopropylmethyl)piperazin-1-yl]cyclohexyl]-7-[[(7R)-7-ethyl-8-isopropyl-5-methyl-6-oxo-7H-pteridin-2-yl]amino]-2,3-dihydrobenzofuran-4-carboxamide], the IC50 in series [1] turned out to be 0.7 nM. Moreover, the “Clearance CL/F” value in series [3] (intravenous injection) came out at 5.5 ± 0.5 mL/min/kg. Besides, the bioavailability in series [3] (both sexes, rat, plasma, oral, intragastric vs intravenous, read-out: oral bioavailability F) is 59.4%. Also, the Vd/F in series [3] (both sexes, rat, plasma, po, intragastric administration, read-out: Apparent Distribution Volume Vz/F) was determined as 13.6 ± 1 L/kg. Moreover, in series [3] (setting [4]), the area under the curve (AUC) was 45600 ± 9230 ng·h/mL, the half-life was 17.2 ± 4.4 h and the MRT turned out to be 26.1 ± 5 h. In series [3] (both sexes, rat, plasma, po, intragastric administration, read-out: Clearance CL/F (converted)), the CL/F is 9.5 mL/min/kg. For the same compound, the maximum concentration (Cmax) in series [3] (both sexes, rat, plasma, po, intragastric administration, read-out: Plasma Conc. Cmax) is 1860 ± 150 ng/mL. In series [3] (setting [5]), the exposure (AUC) was 76700 ± 6200 ng·h/mL, the half-life is 17.3 ± 3.3 h and the MRT is 22.8 ± 4.3 h.
With `CC[C@@H]1C(=O)N(C)c2cnc(Nc3ccc(C(=O)N[C@H]4C[C@@H]5CN(C)C[C@@H]5C4)c4c3OC(C)(C)C4)nc2N1C1CCCC1` [Example 9, (cis-endo)-N-[2-Methyl-3,3α,4,5,6,6α-hexahydro-1H-cyclopenta[c]pyrrol-5-yl]-7-[[(7R)-8-cyclopentyl-7-ethyl-5-methyl-6-oxo-7H-pteridin-2-yl]amino]-2,2-dimethyl-3H-benzofuran-4-carboxamide], half-maximal inhibition in series [1] (IC50) required 2 nM.
On the same count and under the same terms, in the case of `CC[C@@H]1C(=O)N(C)c2cnc(Nc3ccc(C(=O)N[C@H]4CC[C@@H](N5CCN(CC6CC6)CC5)CC4)c4c3OCC4)nc2N1C1CCCC1` [Example 12, 7-[[(7R)-8-Cyclopentyl-7-ethyl-5-methyl-6-oxo-7H-pteridin-2-yl]amino]-N-[(cis)-4-[4-(cyclopropylmethyl)piperazin-1-yl]cyclohexyl]-2,3-dihydrobenzofuran-4-carboxamide] it was 0.8 nM; in that of `CC[C@@H]1C(=O)N(C)c2cnc(Nc3ccc(C(=O)N[C@H]4C[C@@H]5CN(C)C[C@@H]5C4)c4c3OCC4)nc2N1C1CCCC1` [Example 11, (cis-endo)-N-[2-Methyl-3,3a,4,5,6,6a-hexahydro-1H-cyclopenta[c]pyrrol-5-yl]-7-[[(7R)-8-cyclopentyl-7-ethyl-5-methyl-6-oxo-7H-pteridin-2-yl]amino]-2,3-dihydrobenzofuran-4-carboxamide], 1 nM; in that of `CC[C@@H]1C(=O)N(C)c2cnc(Nc3ccc(C(=O)N[C@@H]4C[C@@H]5CN(C)C[C@@H]5C4)c4c3OCC4)nc2N1C1CCCC1` [Example 5], 1 nM.
The same measure, in the same setting: in the case of `CC[C@@H]1C(=O)N(C)c2cnc(Nc3ccc(C(=O)NC[C@@H](O)CN4CCN(C)CC4)c4c3OCC4)nc2N1C1CCCC1` [Example 25, 7-[[(7R)-8-Cyclopentyl-7-ethyl-5-methyl-6-oxo-7H-pteridin-2-yl]amino]-N-[(2R)-2-hydroxy-3-(4-methylpiperazin-1-yl)propyl]-2,3-dihydrobenzofuran-4-carboxamide] it was 3 nM; in that of `CC[C@@H]1C(=O)N(C)c2cnc(Nc3ccc(C(=O)NC[C@H](O)CN4CCN(C)CC4)c4c3OC(C)(C)C4)nc2N1C1CCCC1` [Example 21, 7-[[(7R)-8-Cyclopentyl-7-ethyl-5-methyl-6-oxo-7H-pteridin-2-yl]amino]-N-[(2S)-3-(4-methylpiperazin-1-yl)-2-hydroxy-propyl]-2,2-dimethyl-3H-benzofuran-4-carboxamide], 7 nM.

The record behind these values is patent US8691822B2, “Dihydropteridinone derivatives, preparation process and pharmaceutical use thereof” (Jiangsu Hengrui Medicine Co., Ltd., priority 2009, dated 2014).
